This is an account of results in ChEMBL document CHEMBL3301361, “Experimental in vitro DMPK and physicochemical data on a set of publicly disclosed compounds”.

Values after ≈ are worked out from the molar mass of the structure shown. Some results are limits rather than exact numbers.

A short description of data set [1]: physchem.
The nature of data set [2]: physchem. To be noted: pH 7.4 buffer.
A short description of data set [3]: in vitro. To be noted: human.
The nature of data set [4]: in vitro. To be noted: hepatocytes.
The nature of data set [5]: in vitro. To be noted: human, hepatocytes.
A short description of data set [6]: physchem. To be noted: octan-1-ol/water.
Data set [7] can be described thus: in vitro. To be noted: human, plasma.
Data set [8] can be described thus: in vitro. To be noted: SD, HW or BN, rat, plasma.

In the case of `c1ccc(SCc2ccccn2)cc1`, the pKa in data set [1] came to 3.8.

In turn, `O=C(O[C@H]1C[N+]2(CCCOc3ccccc3)CCC1CC2)C(O)(c1cccs1)c1cccs1` came in with a thermodynamic solubility in data set [2] of 339 µM. Besides, the intrinsic clearance (microsomal CLint) in data set [3] (liver microsomes) came to 140 µL/min/mg. Moreover, the hepatocyte CLint in data set [4] came to 80 µL/min/1e6 cells; in data set [5] it was 64 µL/min/1e6 cells.

`Cc1ccccc1-n1c(Cn2nc(-c3ccc(O)c(F)c3)c3c(N)ncnc32)nc2cccc(C)c2c1=O` yielded a logD in data set [6] (pH 7.4, LogD7.4) of 3.55. The compound also returned a thermodynamic solubility in data set [2] of 25.1 µM (≈ 12.7 µg/mL). The fraction unbound at 5 h was 0.02 in data set [7] (PPB) and 0.0313 in data set [8]. Besides, the hepatocyte CLint in data set [4] is 44.7 µL/min/1e6 cells; in data set [5] it was 39.8 µL/min/1e6 cells.

`CN1CCN(c2nc3ccccc3cc2Cn2nc(-c3ccc4nc(N)sc4c3)c3c(N)ncnc32)CC1` returned a logD in data set [6] (pH 7.4, LogD7.4) of 3.09. Besides, the solubility (thermodynamic) in data set [2] came to 100 µM (≈ 52.3 µg/mL). The compound further returned a microsomal CLint in data set [3] (liver microsomes) of 72 µL/min/mg. The hepatocyte CLint turned out to be 81 µL/min/1e6 cells in data set [4] and 7.59 µL/min/1e6 cells in data set [5].

Regarding `c1ccc(CSc2nc3ccccc3[nH]2)cc1`, the pKa in data set [1] came out at 4.2.

In turn, `O=C(CO)N1CCC(c2[nH]nc(-c3ccc(Cl)cc3F)c2-c2ccncn2)CC1` displayed a logD in data set [6] (pH 7.4, LogD7.4) of 1.79. This compound had a thermodynamic solubility in data set [2] of 7.8 µM (≈ 3.24 µg/mL). In addition, the fraction unbound at 5 h in data set [7] (PPB) was 0.253; in data set [8], 0.324. Besides, the microsomal CLint in data set [3] (microsomes) is below 3 µL/min/mg. Also, the hepatocyte CLint in data set [4] and in data set [5] was below 3 µL/min/1e6 cells each time.

On to `C[C@H]1CN(Cc2cc(Cl)ccc2OCC(=O)O)CCN1C(=O)Cc1ccc(F)cc1`, for which the fraction unbound at 5 h in data set [7] is 0.0287; in data set [8] it was 0.0928. The microsomal CLint in data set [3] (microsomes) is below 3 µL/min/mg. Besides, the hepatocyte CLint in data set [4] and in data set [5] was below 3 µL/min/1e6 cells in each case.

With `C[C@H](Oc1ccc(Cl)cc1CN1CCN(C(=O)Cc2ccc(Cl)cc2)[C@@H](C)C1)C(=O)O`, the fraction unbound at 5 h in data set [7] is 0.0256. This compound displayed a microsomal CLint in data set [3] (liver microsomes) below 3 µL/min/mg. The values for the hepatocyte CLint in data set [4] and in data set [5] were below 3 µL/min/1e6 cells and 4.7 µL/min/1e6 cells, respectively.

For the compound `NC(=O)NC(=O)C(Nc1ccc2c(c1)CCC2)c1ccccc1` (centres undefined), the logD in data set [6] (pH 7.4) is 3.3. Also, the results for the fraction unbound at 5 h in data set [7] and in data set [8] were 0.03 and 0.0581, respectively. In data set [3] (liver microsomes), this compound displayed a microsomal CLint of 27.5 µL/min/mg. The figures for the hepatocyte CLint in data set [4] and in data set [5] were 55 µL/min/1e6 cells and 13.8 µL/min/1e6 cells, respectively.

Take `O=C(O)/C=C/c1cccnc1`: the pKa in data set [1] came out at 4.4.

`O=C(O)CCc1ccc(OCc2cccc(Br)c2)cc1` had a logD in data set [6] (pH 7.4, LogD7.4) of 1.67. In data set [3] (liver microsomes), this compound had a microsomal CLint below 3 µL/min/mg. Moreover, the results for the hepatocyte CLint in data set [4] and in data set [5] were above 150 µL/min/1e6 cells and 129 µL/min/1e6 cells, respectively.

As for `O=c1[nH]c2c(O)ccc([C@@H](O)CNCCSCCCNCCc3ccccc3)c2s1`, the logD in data set [6] (pH 7.4, LogD7.4) was determined as 0.12. The same compound displayed a solubility (thermodynamic) in data set [2] of 1150 µM (≈ 514 µg/mL). Further, the microsomal CLint in data set [3] (liver microsomes) amounted to 5 µL/min/mg. The intrinsic clearance (hepatocyte CLint) is 9 µL/min/1e6 cells in data set [4] and below 3 µL/min/1e6 cells in data set [5].

As for `Cc1nn(-c2ccc(F)cc2)c(NS(=O)(=O)c2ccc(C#N)cc2)c1C(=O)N[C@@H](C)C(C)(C)C`, in data set [6] (pH 7.4, LogD7.4), the logD is 0.45. The results for the fraction unbound at 5 h in data set [7] (PPB) and in data set [8] were 0.0437 and 0.0801, respectively. Besides, the values for the hepatocyte CLint in data set [4] and in data set [5] were 6 µL/min/1e6 cells and below 3 µL/min/1e6 cells, respectively.

Regarding `Cc1cc(F)ccc1-n1nc(C(F)(F)F)cc1-c1ccc2c(c1)NC(=O)CO2`, the fraction unbound at 5 h in data set [8] is 0.19. The microsomal CLint in data set [3] (liver microsomes) came out at 14.4 µL/min/mg. The figures for the hepatocyte CLint in data set [4] and in data set [5] were 28.2 µL/min/1e6 cells and 10.7 µL/min/1e6 cells, respectively.

In turn, `O=c1[nH]c2c(O)ccc([C@@H](O)CNCCc3cccc(CNCCc4c(Cl)cccc4Cl)c3)c2s1` gave a logD in data set [6] (pH 7.4, LogD7.4) of 3.15. In addition, the microsomal CLint in data set [3] (liver microsomes) was found to be 63 µL/min/mg. Further, the hepatocyte CLint amounted to 78 µL/min/1e6 cells in data set [4] and 5.17 µL/min/1e6 cells in data set [5].

In the case of `O=C(Nc1cc(-c2ccnc(Nc3ccccc3)c2)ccn1)C1CCOCC1`, in data set [6] (pH 7.4, LogD7.4), the logD was found to be 3.7. In data set [3] (liver microsomes), this compound displayed a microsomal CLint of 12.6 µL/min/mg. For the same compound, the figures for the hepatocyte CLint in data set [4] and in data set [5] were above 150 µL/min/1e6 cells and 16.2 µL/min/1e6 cells, respectively.

`CC(C)(C)NS(=O)(=O)c1cncc(-c2ccc3nc(NC(=O)NCC(=O)N4CCCC4)nn3c2)c1`: the logD in data set [6] (pH 7.4, LogD7.4) turned out to be 1.37. The thermodynamic solubility in data set [2] turned out to be 6.6 µM (≈ 3.3 µg/mL). In addition, the fraction unbound at 5 h is 0.329 in data set [7] (PPB) and 0.232 in data set [8]. In addition, the microsomal CLint in data set [3] (microsomes) is 5 µL/min/mg. Further, the hepatocyte CLint is below 3 µL/min/1e6 cells in data set [4] and 4.79 µL/min/1e6 cells in data set [5].

For `CC(C)(C)NS(=O)(=O)c1cncc(-c2ccc3nc(NC(=O)NCC(=O)N4CCOCC4)nn3c2)c1`, the logD in data set [6] (pH 7.4, LogD7.4) stood at 0.96. Moreover, the thermodynamic solubility in data set [2] is 53.7 µM (≈ 27.7 µg/mL). For the same compound, in data set [8], the fraction unbound at 5 h is 0.535. Also, the microsomal CLint in data set [3] (liver microsomes) came to 5 µL/min/mg. For the same compound, the hepatocyte CLint in data set [4] was 5 µL/min/1e6 cells; in data set [5], 3.39 µL/min/1e6 cells.
